Measured values from US8263606B2 (Xenon Pharmaceuticals Inc., priority 2008, dated 2012).

Key:
CYP3A4 = CYP3A4 (Homo sapiens, UniProt P08684); assay: Cytochrome P450 (CYP450) Inhibition Assay, CYP3A4 (Vivid fluorescence, BOMCC substrate); details: human, P450 Baculosomes (recombinant CYP3A4), probe BOMCC (Vivid substrate)
CYP3A4, sequence (P08684 whole entry): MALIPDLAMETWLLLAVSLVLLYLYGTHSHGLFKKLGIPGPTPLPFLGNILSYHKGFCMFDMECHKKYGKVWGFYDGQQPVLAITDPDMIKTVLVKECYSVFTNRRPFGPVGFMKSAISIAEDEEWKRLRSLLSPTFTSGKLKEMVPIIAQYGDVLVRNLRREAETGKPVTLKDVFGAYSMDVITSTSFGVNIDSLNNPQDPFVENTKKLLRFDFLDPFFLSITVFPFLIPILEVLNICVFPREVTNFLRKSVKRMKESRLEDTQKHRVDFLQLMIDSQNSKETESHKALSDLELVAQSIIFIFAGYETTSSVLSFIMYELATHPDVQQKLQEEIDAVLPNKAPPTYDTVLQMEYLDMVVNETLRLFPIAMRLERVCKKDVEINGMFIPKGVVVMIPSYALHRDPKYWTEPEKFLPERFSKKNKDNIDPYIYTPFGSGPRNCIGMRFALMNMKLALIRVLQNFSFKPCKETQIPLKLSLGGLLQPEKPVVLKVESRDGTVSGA

SMILES	inhibition at 10 µM (CYP3A4)	melting point
CCCCC(=O)Nc1cccc2c1C1(COc3cc4c(cc31)OCCO4)C(=O)N2C (stereo not drawn) [Example 16.30, N-(1′-methyl-2′-oxo-1′,2,2′,3-tetrahydrospiro[furo[2,3-g][1,4]benzodioxine-8,3′-indol]-4′-yl)pentanamide]	< 50%	182 to 183 °C
CN1C(=O)C2(COc3cc4c(cc32)OCCO4)c2c1cccc2N1CCCC1=O (stereo not drawn) [Example 16.16, 1′-methyl-4′-(2-oxopyrrolidin-1-yl)-2,3-dihydrospiro[furo[2,3-g][1,4]benzodioxine-8,3′-indol]-2′(1′H)-one]	< 50%	256 to 258 °C
CN1C(=O)C2(COc3cc4c(cc32)OCCO4)c2c(NC(=O)NC3CCCC3)cccc21 (stereo not drawn) [Example 16.36, 1-cyclopentyl-3-(1′-methyl-2′-oxo-1′,2,2′,3-tetrahydrospiro[furo[2,3-g][1,4]benzodioxine-8,3′-indol]-4′-yl)urea]	< 50%	133 to 135 °C
CC(=O)Nc1cccc2c1C1(COc3cc4c(cc31)OCCO4)C(=O)N2C (stereo not drawn) [Example 16.25, N-(1′-methyl-2′-oxo-1′,2,2′,3-tetrahydrospiro[furo[2,3-g][1,4]benzodioxine-8,3′-indol]-4′-yl)acetamide]	< 50%	182 to 184 °C
CN1C(=O)C2(COc3cc4c(cc32)OCCO4)c2c(-c3ccc4ccc(=O)oc4c3)cccc21 (stereo not drawn) [Example 16.15, 1′-methyl-4′-(2-oxo-2H-chromen-7-yl)-2,3-dihydrospiro[furo[2,3-g][1,4]benzodioxine-8,3′-indol]-2′(1′H)-one]	> 50%	228 to 229 °C
CN1C(=O)C2(COc3cc4c(cc32)OCCO4)c2c(C#N)cccc21 (stereo not drawn) [Example 16.71, 1′-methyl-2′-oxo-1′,2,2′,3-tetrahydrospiro[furo[2,3-g][1,4]benzodioxine-8,3′-indole]-4′-carbonitrile]	< 50%	196 to 197 °C
COCCOCC(=O)Nc1cccc2c1C1(COc3cc4c(cc31)OCCO4)C(=O)N2C (stereo not drawn) [Example 16.34, 2-(2-methoxyethoxy)-N-(1′-methyl-2′-oxo-1′,2,2′,3-tetrahydrospiro[furo[2,3-g][1,4]benzodioxine-8,3′-indol]-4′-yl)acetamide]	< 50%	122 to 123 °C
O=C1Nc2cccc(-c3ccoc3)c2[C@]12COc1cc3c(cc12)OCO3 [Example 16.65, (7S)-4′-furan-3-ylspiro[furo[2,3-f][1,3]benzodioxole-7,3′-indol]-2′(1′H)-one]	> 50%	230 to 231 °C
O=C1N(Cc2cccnc2C(F)(F)F)c2ccccc2C12COc1cc3c(cc12)OCCO3 (stereo not drawn) [Example 5.10, 1′-{[2-(trifluoromethyl)pyridin-3-yl]methyl}-2,3-dihydrospiro[furo[2,3-g][1,4]benzodioxine-8,3′-indol]-2′(1′H)-one]	< 50%	219 to 220 °C
Cc1nc(-c2cccc3c2C2(COc4cc5c(cc42)OCCO5)C(=O)N3C)no1 (stereo not drawn) [Example 16.74, 1′-methyl-4′-(5-methyl-1,2,4-oxadiazol-3-yl)-2,3-dihydrospiro[furo[2,3-g][1,4]benzodioxine-8,3′-indol]-2′(1′H)-one]	< 50%	199 to 201 °C
CCCCCC(=O)Nc1cccc2c1C1(COc3cc4c(cc31)OCCO4)C(=O)N2C (stereo not drawn) [Example 16.32, N-(1′-methyl-2′-oxo-1′,2,2′,3-tetrahydrospiro[furo[2,3-g][1,4]benzodioxine-8,3′-indol]-4′-yl)hexanamide]	< 50%	151 to 153 °C
CN1C(=O)C2(COc3cc4c(cc32)OCCO4)c2c(NS(C)(=O)=O)cccc21 (stereo not drawn) [Example 16.22, N-(1′-methyl-2′-oxo-1′,2,2′,3-tetrahydrospiro[furo[2,3-g][1,4]benzodioxine-8,3′-indol]-4′-yl)methanesulfonamide]	< 50%	184 to 186 °C
CN1C(=O)C2(COc3cc4c(cc32)OCCO4)c2c(-c3cc(O)[nH]n3)cccc21 (stereo not drawn) [Example 27, 4′-(5-hydroxy-1H-pyrazol-3-yl)-1′-methyl-2,3-dihydrospiro[furo[2,3-g][1,4]benzodioxine-8,3′-indol]-2′(1′H)-one]	< 50%	> 250 °C
CN1C(=O)C2(COc3cc4c(cc32)OCCO4)c2c1cccc2-n1ccccc1=O (stereo not drawn) [Example 16.18, 1′-methyl-4′-(2-oxopyridin-1(2H)-yl)-2,3-dihydrospiro[furo[2,3-g][1,4]benzodioxine-8,3′-indol]-2′(1′H)-one]	< 50%	212 to 214 °C
O=C1Nc2cccc(-c3ccoc3)c2[C@@]12COc1cc3c(cc12)OCO3 [Example 16.66, (7R)-4′-furan-3-ylspiro[furo[2,3-f][1,3]benzodioxole-7,3′-indol]-2′(1′H)-one]	> 50%	229 to 231 °C
Cc1noc(C)c1-c1cccc2c1C1(COc3cc4c(cc31)OCCO4)C(=O)N2C (stereo not drawn) [Example 16.75, 4′-(3,5-dimethylisoxazol-4-yl)-1′-methyl-2,3-dihydrospiro[furo[2,3-g][1,4]benzodioxine-8,3′-indol]-2′(1′H)-one]	> 50%	228 to 230 °C
COc1ccc(Oc2cccc3c2C2(COc4cc5c(cc42)OCCO5)C(=O)N3C)cc1 (stereo not drawn) [Example 16.84, 4′-(4-methoxyphenoxy)-1′-methyl-2,3-dihydrospiro[furo[2,3-g][1,4]benzodioxine-8,3′-indol]-2′(1′H)-one]	> 50%	55 to 58 °C
CN1C(=O)C2(COc3cc4c(cc32)OCCO4)c2c(-c3ccoc3)cccc21 (stereo not drawn) [Example 16.68, 4′-furan-3-yl-1′-methyl-2,3-dihydrospiro[furo[2,3-g][1,4]benzodioxine-8,3′-indol]-2′(1′H)-one]	> 50%	178 to 180 °C
CCCCCCNC(=O)Nc1cccc2c1C1(COc3cc4c(cc31)OCCO4)C(=O)N2C (stereo not drawn) [Example 16.35, 1-hexyl-3-(1′-methyl-2′-oxo-1′,2,2′,3-tetrahydrospiro[furo[2,3-g][1,4]benzodioxine-8,3′-indol]-4′-yl)urea]	> 50%	154 to 155 °C
CCC(=O)Nc1cccc2c1C1(COc3cc4c(cc31)OCCO4)C(=O)N2C (stereo not drawn) [Example 16.29, N-(1′-methyl-2′-oxo-1′,2,2′,3-tetrahydrospiro[furo[2,3-g][1,4]benzodioxine-8,3′-indol]-4′-yl)propanamide]	< 50%	224 to 226 °C
CN1C(=O)[C@]2(COc3cc4c(cc32)OCO4)c2c(Br)cccc21 [Example 16.64, (7S)-4′-bromo-1′-methylspiro[furo[2,3-f][1,3]benzodioxole-7,3′-indol]-2′(1′H)-one]	> 50%	226 to 227 °C
CN1C(=O)C2(COc3cc4c(cc32)OCCO4)c2c(C(=O)N3CCCC3)cccc21 (stereo not drawn) [Example 16.41, 1′-methyl-4′-(pyrrolidin-1-ylcarbonyl)-2,3-dihydrospiro[furo[2,3-g][1,4]benzodioxine-8,3′-indol]-2′(1′H)-one]	< 50%	242 to 244 °C
CN1C(=O)C2(COc3cc4c(cc32)OCCO4)c2c(C(=O)NC3CCC3)cccc21 (stereo not drawn) [Example 16.77, N-cyclobutyl-1′-methyl-2′-oxo-1′,2,2′,3-tetrahydrospiro[furo[2,3-g][1,4]benzodioxine-8,3′-indole]-4′-carboxamide]	< 50%	128 to 129 °C
CN1C(=O)C2(COc3cc4c(cc32)OCCO4)c2c(OCc3ccccc3)cccc21 (stereo not drawn) [Example 16.57, 4′-(benzyloxy)-1′-methyl-2,3-dihydrospiro[furo[2,3-g][1,4]benzodioxine-8,3′-indol]-2′(1′H)-one]	> 50%	198 to 200 °C
CN1C(=O)C2(COc3cc4c(cc32)OCCO4)c2c(Oc3ccc(C(F)(F)F)cc3)cccc21 (stereo not drawn) [Example 16.56, 1′-methyl-4′-[4-(trifluoromethyl)phenoxy]-2,3-dihydrospiro[furo[2,3-g][1,4]benzodioxine-8,3′-indol]-2′(1′H)-one]	> 50%	198 to 201 °C
CN1C(=O)C2(COc3cc4c(cc32)OCCO4)c2c(NC(=O)c3ccccc3)cccc21 (stereo not drawn) [Example 16.27, N-(1′-methyl-2′-oxo-1′,2,2′,3-tetrahydrospiro[furo[2,3-g][1,4]benzodioxine-8,3′-indol]-4′-yl)benzamide]	> 50%	192 to 194 °C
O=C1N(Cc2cccc(C(F)(F)F)n2)c2ccccc2C12COc1cc3c(cc12)OCCO3 (stereo not drawn) [Example 5.9, 1′-{[6-(trifluoromethyl)pyridin-2-yl]methyl}-2,3-dihydrospiro[furo[2,3-g][1,4]benzodioxine-8,3′-indol]-2′(1′H)-one]	> 50%	195 to 196 °C
COc1ncc(CN2C(=O)C3(COc4cc5c(cc43)OCCO5)c3ccccc32)cn1 (stereo not drawn) [Example 5.14, 1′-[(2-methoxypyrimidin-5-yl)methyl]-2,3-dihydrospiro[furo[2,3-g][1,4]benzodioxine-8,3′-indol]-2′(1′H)-one]	< 50%	248 to 249 °C
CN1C(=O)C2(COc3cc4c(cc32)OCCO4)c2c(NC(=O)C3CCC3)cccc21 (stereo not drawn) [Example 16.20, N-(1′-methyl-2′-oxo-1′,2,2′,3-tetrahydrospiro[furo[2,3-g][1,4]benzodioxine-8,3′-indol]-4′-yl)cyclobutanecarboxamide]	< 50%	234 to 236 °C
CN1C(=O)C2(COc3cc4c(cc32)OCCO4)c2c(Oc3ccccn3)cccc21 (stereo not drawn) [Example 16.53, 1′-methyl-4′-(pyridin-2-yloxy)-2,3-dihydrospiro[furo[2,3-g][1,4]benzodioxine-8,3′-indol]-2′(1′H)-one]	> 50%	219 to 221 °C
